Test results as given in PubChem BioAssay (NCI).
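Step 1: Grow cells in 96-well plates. Step 2: Expose to compound for 48 hours at 5 concentrations. Step 3: Interpolate endpoints linearly; if unreached, use highest concentration. TGI marks complete inhibition of growth.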

Key:
Experiment in all cases: NCI-60 cell line screen, 48 h
[1] = system: 786-0 renal
[2] = system: HCT-15 colon
[3] = system: HS 578T breast
[4] = system: K-562 leukemia
[5] = system: KM12 colon
[6] = system: OVCAR-5 ovarian
[7] = system: PC-3 prostate
[8] = system: SK-MEL-5 melanoma
[9] = system: SK-OV-3 ovarian
[10] = system: SR leukemia
[11] = system: TK-10 renal
[12] = system: U251 CNS

SMILES	TGI [1]	TGI [2]	TGI [3]	TGI [4]	TGI [5]	TGI [6]	TGI [7]	TGI [8]	TGI [9]	TGI [10]	TGI [11]	TGI [12]
N#CCN(Cc1ccccc1)[C@H]1CCC[C@]1(O)/C=C/c1ccc2c(c1)OCO2	31.4 µM	60.2 µM	43 µM	51.5 µM	45.3 µM	> 100 µM	35.7 µM	30.1 µM	> 100 µM	40.2 µM	> 100 µM	38.6 µM
COc1ccccc1/[N+]([O-])=C/c1ccccc1OC(=S)S	85.9 µM	> 100 µM	> 100 µM	> 100 µM	> 100 µM	> 100 µM	> 100 µM	> 100 µM	> 100 µM	> 100 µM	> 100 µM	> 100 µM
CCCCCCCCCCCCOCCCCCCCCC/C=C/c1ccc2c(c1)OCCOCCOCCOCCO2	26.6 µM	> 100 µM	47.3 µM	> 100 µM	31.1 µM	> 100 µM	39.9 µM	29.7 µM	34.4 µM	49.1 µM	41.5 µM	40.6 µM
CCOC(=O)NC(OCCN(C)C)(C(F)(F)F)C(F)(F)F	> 100 µM	> 100 µM	> 100 µM	> 100 µM	> 100 µM	> 100 µM	> 100 µM	> 100 µM	> 100 µM	> 100 µM	> 100 µM	> 100 µM
CC1=NN(c2cccc(Cl)c2)C(=N/c2nc3ccccc3s2)/C1=C\c1ccccc1O	> 100 µM	81.1 µM	56.5 µM	> 100 µM	> 100 µM	> 100 µM	48.7 µM	46.2 µM	81.1 µM	77.3 µM	> 100 µM	61 µM
CCCCn1c(C)c(C)c2c1NN=C(C#N)S2(=O)=O	> 100 µM	> 100 µM	> 100 µM	> 100 µM	> 100 µM	> 100 µM	> 100 µM	> 100 µM	> 100 µM	> 100 µM	> 100 µM	> 100 µM
O=S(=O)(O)c1ccc(N=Nc2c(O)ccc3ccccc23)cc1	> 100 µM	> 100 µM	> 100 µM	> 100 µM	> 100 µM	> 100 µM	> 100 µM	> 100 µM	> 100 µM	> 100 µM	> 100 µM	> 100 µM
O=c1oc2ccccc2cc1-c1nc2ccccc2c(=O)[nH]1	> 100 µM	> 100 µM	> 100 µM	> 100 µM	> 100 µM	> 100 µM	> 100 µM	> 100 µM	> 100 µM	> 100 µM	> 100 µM	> 100 µM
O=C1CSC2(CC(/C=C/c3cccc(Br)c3)=NN2c2cccc(S(=O)(=O)O)c2)N1c1nc2ccccc2s1 (stereo unspecified)	> 100 µM	> 100 µM	> 100 µM	> 100 µM	> 100 µM	> 100 µM	> 100 µM	> 100 µM	> 100 µM	> 100 µM	> 100 µM	> 100 µM
O=C(/C=C/c1ccsc1)c1cccs1	> 100 µM	37 µM	> 100 µM	> 100 µM	35.1 µM	> 100 µM	> 100 µM	36.3 µM	> 100 µM	> 10 µM	> 100 µM	44.2 µM
N/C(=N\Nc1cccc(Cl)c1)c1cccnc1	> 100 µM	> 100 µM	> 100 µM	> 100 µM	> 100 µM	> 100 µM	> 100 µM	> 88 µM	> 100 µM	64.9 µM	> 100 µM	> 100 µM
COC(=O)C1=C(O)C(C(=O)OC)[C@]2(O)[C@H](C(=O)OC)[C@H]1C[C@@H](c1ccc(Cl)cc1Cl)[C@H]2C(=O)OC (stereo partly specified)	> 100 µM	27.6 µM	> 100 µM	14 µM	32.9 µM	40.7 µM	23.5 µM	16.8 µM	47.9 µM	19.2 µM	26.2 µM	14.4 µM
COc1ccc2c(c1)nc1n2C(c2c(F)cccc2F)SC1 (stereo unspecified)	> 100 µM	> 100 µM	> 100 µM	> 100 µM	> 100 µM	> 100 µM	> 100 µM	56.4 µM	> 100 µM	> 100 µM	> 100 µM	> 100 µM
